Data reported in patent US5130300A, “Method for enhancing growth of mammary parenchyma” (Monsanto Company, priority 1987, dated 1992).

Columns and labels:
[1] = system: Quarter-Udders in Pregnant Beef Cows; test: Intramammary infusion of bIGF-I, quarter-udder weights and DNA (Examples 14-16); format: in vivo, cross-bred beef cows
Description: (§1) 24 pregnant, non-lactating, cross-bred beef cows within their last 40-80 days of gestation were housed in a free-stall facility, fed a ration of alfalfa hay and pelleted concentrate, and administered 10 ml of an excipient (a sesame oil emulsion of the kind used in Examples 4-6) into each half-udder by intramammary infusion through the streak canal on days 1, 3, 5, 7 and 9 of this study. The infusion technique, random assignment of half-udders to treatment or control, and treatment vs. control comparisons were as in Examples 1-2. In the treatment infusions, the excipient contained bovine insulin-like growth factor-I (bIGF-I) prepared by expression in E. coli (Prla Strain 079) of recombinant DNA coding for bIGF-I fused to the "lam" B cell wall protein signal sequence, secretion into the E. coli periplasmic space, and recovery/purification by conventional techniques including gel filtration, cation exchange and reverse-phase HPLC. This bIGF-I had the same amino acid sequence and secondary structure as the AMgen human IGF-I used in Example 20. In standard L6 myoblast assays, its activity was essentially the same (90-123%) as that of the Example 20 hIGF-I. The amounts of bIGF-I in each infusion were: Group 1-2.5 micrograms: Group 2-25 micrograms; Group 3-250 micrograms. Animals were prepared and infused, and their quarter-udder weights and DNA were determined as in Example 3-6.
When the procedures described for Groups 1-3 were repeated, results were essentially the same. Pooling results from the original study and its replication, it was determined that both treatment and control quarter-udders had grown as follows: […]

L6 myoblast = test: Standard L6 myoblast assays; format: cell-based
Description: as §1

[2] = Group 1: total of 12.5 micrograms bIGF-I
[3] = Group 1: total of 12.5 micrograms bIGF-I, sesame oil emulsion
[4] = Group 1: total of 12.5 micrograms bIGF-I, B = excipient only

bIGF-I: bovine insulin-like growth factor-I prepared by expression in E. coli of recombinant DNA
DNA, Avg % Increase/Animal [1, 2]: 12.5%
Dry Fat-Free Weight, Avg % Increase/Animal [1, 2]: 16.0%
Dry Weight, Avg % Increase/Animal [1, 2]: 8.8%
Wet Weight, Avg % Increase/Animal [1, 2]: 11.0%
DNA, Treatment Mean [1, 3]: 1307 mg
Dry Fat-Free Weight, Treatment Mean [1, 3]: 54.9 g
Dry Weight, Treatment Mean [1, 3]: 111.7 g
Wet Weight, Treatment Mean [1, 3]: 408.4 g
DNA, % Increase, (A-B)/B [1, 4]: 7.2%
DNA, Mean Increase (A-B) [1, 4]: 88 mg
Dry Fat-Free Weight, % Increase, (A-B)/B [1, 4]: 14.2%
Dry Fat-Free Weight, Mean Increase (A-B) [1, 4]: 6.9 g
Dry Weight, % Increase, (A-B)/B [1, 4]: 8.7%
Dry Weight, Mean Increase (A-B) [1, 4]: 9.0 g
Wet Weight, % Increase, (A-B)/B [1, 4]: 10.7%
Wet Weight, Mean Increase (A-B) [1, 4]: 39.4 g
Plasma levels of bIGF-I during the study ([1]; intramammary infusion, pregnant beef cows): did not increase significantly
Growth of quarter-udders combined, Medium vs. Low dose ([1]; pooled original study and replication, 25 vs 2.5 micrograms bIGF-I per infusion, Combined): +25%
Growth of control quarter-udders, Medium vs. Low dose ([1]; pooled original study and replication, 25 vs 2.5 micrograms bIGF-I per infusion, Controls): +27%
Growth of treatment quarter-udders, Medium vs. Low dose ([1]; pooled original study and replication, 25 vs 2.5 micrograms bIGF-I per infusion, Treatment): +23.1%
Growth of quarter-udders combined, High vs. Low dose ([1]; pooled original study and replication, 250 vs 2.5 micrograms bIGF-I per infusion, Combined): +67%
Growth of control quarter-udders, High vs. Low dose ([1]; pooled original study and replication, 250 vs 2.5 micrograms bIGF-I per infusion, Controls): +71.3%
Growth of treatment quarter-udders, High vs. Low dose ([1]; pooled original study and replication, 250 vs 2.5 micrograms bIGF-I per infusion, Treatment): +62%
Growth of quarter-udders combined, High vs. Medium dose ([1]; pooled original study and replication, 250 vs 25 micrograms bIGF-I per infusion, Combined): +33%
Growth of control quarter-udders, High vs. Medium dose ([1]; pooled original study and replication, 250 vs 25 micrograms bIGF-I per infusion, Controls): +34.4%
Growth of treatment quarter-udders, High vs. Medium dose ([1]; pooled original study and replication, 250 vs 25 micrograms bIGF-I per infusion, Treatment): +31.5%
Growth of the non-infused quarters ([1]; two higher doses (Groups 2-3)): substantial growth
Growth of treatment quarters vs. control quarters ([1]; two higher doses (Groups 2-3: 25 and 250 micrograms per infusion)): did not produce consistently greater growth of treatment quarters vs. control quarters
Activity relative to the Example 20 hIGF-I (L6 myoblast): 90-123%
